The text below walks through data of the supplement of paper PMC11208160.

This data set can be described thus: recombinant UMI read abundance after kanamycin selection (control-corrected) (log10(CPM+1)); higher = more efficient recombination; extreme values may be limits of the assay; sequences stand for … in AGTGCAGAGAAAATCGGCCAGTTTTCTCTGCCTGCAGTCCGCATGCCGTGGGACCCCTTGGGTTCTAACCTGTTGCCTAGATTTATGCAGCGGACTGCCTTTCTCCCAAAGTGATAAACCGG…AGGTTGGTTTCACT; site = the 11-nt donor. The gist of the method:
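Sequenced counts of recombinant UMIs were turned into CPM, averaged across replicates and scaled with control-derived factors. The reported figure is log10(CPM+1). Those UMIs, each 12 nt long, tagged donor and donor-binding-loop pairs on a plasmid with a promoterless kanamycin gene, screened as a pool in Escherichia coli with IPTG (0.07 mM) plus kanamycin or without selection.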
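Also: IS621 bridge recombinase in Escherichia coli cells against a fixed T5 target plasmid.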

Turning to “CGAGGTCCATGGACCGGTTTTCCCGGTAATCCGTATTTGGG (site CGAGGCCCTCC)”, the “recombinant UMI read abundance (log10)” value worked out at 0.0189. With “CGAGGTCCATGGACCGGTTTTCCCGGTAATCCGTATTTGGG (site CGAGGGCCTCC)”, the “recombinant UMI read abundance (log10)” value is 0.0131. The value for “CGAGGTCCATGGACCGGTTTTCCCGGTAATCCGTATTTGGG (site CGAGGTCCTCC)” was 0.0134; that for “CGAGGTGCATGGACCGGTTTTCCCGGTAATCCGTATTTGAT (site CAAGGTGCTAT)” was 1.84. The value for “CGAGGTGCATGGACCGGTTTTCCCGGTAATCCGTATTTGAT (site CCAGGTGCTAT)” was 1.37; that for “CGAGGTGCATGGACCGGTTTTCCCGGTAATCCGTATTTGAT (site CGAGGTGCTAT)” was 2.36.

For the sequence “CGAGGTGCATGGACCGGTTTTCCCGGTAATCCGTATTTGAT (site CTAGGTGCTAT)”, the “recombinant UMI read abundance (log10)” value was 1.6. In the case of “CGAGTAGCATGGACCGGTTTTCCCGGTAATCCGTATTTGCC (site CGAGTAGCTGG)” it was 1.66; in that of “CGAGTATCATGGACCGGTTTTCCCGGTAATCCGTATTTGGC (site CGAGTATCTGC)”, 3.08; in that of “CGAGTATCATGGACCGGTTTTCCCGGTAATCCGTATTTGGC (site CTAGTATCTGT)”, 2.29. The value for “CGAGTCACATGGACCGGTTTTCCCGGTAATCCGTATTTGGG (site CAAGTCACTCC)” was 0.0136; that for “CGAGTCACATGGACCGGTTTTCCCGGTAATCCGTATTTGGG (site CCAGTCACTCC)” was 0.0249; that for “CGAGTCACATGGACCGGTTTTCCCGGTAATCCGTATTTGGG (site CGAGTCACTCC)” was 0.184. In the case of “CGAGTCACATGGACCGGTTTTCCCGGTAATCCGTATTTGGG (site CTAGTCACTCC)” it was 0.00855; in that of “CGAGTGGCATGGACCGGTTTTCCCGGTAATCCGTATTTGAG (site CGAGTGGCTCT)”, 1.85.

For “CGATAATCATGGACCGGTTTTCCCGGTAATCCGTATTTGGT (site CGATAATCTAC)”, the “recombinant UMI read abundance (log10)” value was 2.74. The value for “CGATAATCATGGACCGGTTTTCCCGGTAATCCGTATTTGGT (site CGATCATCTAG)” was 0; that for “CGATCATCATGGACCGGTTTTCCCGGTAATCCGTATTTGAC (site CGATCATCTAG)” was 0. In the case of “CGATCATCATGGACCGGTTTTCCCGGTAATCCGTATTTGAC (site CGATCATCTGT)” it was 1.49. In the case of “CGATCATCATGGACCGGTTTTCCCGGTAATCCGTATTTGCA (site CGATCATCTAG)” it was 0; in that of “CGATCATCATGGACCGGTTTTCCCGGTAATCCGTATTTGCA (site CGATCATCTCG)”, 0. Consider “CGATCATCATGGACCGGTTTTCCCGGTAATCCGTATTTGCA (site CGATCATCTGG)”, for which the “recombinant UMI read abundance (log10)” value is 0. In the case of “CGATCATCATGGACCGGTTTTCCCGGTAATCCGTATTTGCA (site CGATCATCTTG)” it was 2.31. In the case of “CGATCATCATGGACCGGTTTTCCCGGTAATCCGTATTTGGG (site CGATCATCTAG)” it was 0; in that of “CGATCATCATGGACCGGTTTTCCCGGTAATCCGTATTTGGG (site CGATCATCTCC)”, 0.00655; in that of “CGATCCCCATGGACCGGTTTTCCCGGTAATCCGTATTTGAA (site CGATCCCCTTT)”, 0.71. The value for “CGATCGACATGGACCGGTTTTCCCGGTAATCCGTATTTGTG (site CGATCGACTAA)” was 0.242; that for “CGATCGACATGGACCGGTTTTCCCGGTAATCCGTATTTGTG (site CGATCGACTCA)” was 0.139. Consider “CGATCGACATGGACCGGTTTTCCCGGTAATCCGTATTTGTG (site CGATCGACTGA)”, for which the “recombinant UMI read abundance (log10)” value amounted to 0. In the case of “CGATCGACATGGACCGGTTTTCCCGGTAATCCGTATTTGTG (site CGATCGACTTA)” it was 0.319; in that of “CGATCGACATGGACCGGTTTTCCCGGTAATCCGTATTTGTT (site AGATCGACTAA)”, 0.0131; in that of “CGATCGACATGGACCGGTTTTCCCGGTAATCCGTATTTGTT (site CAATCGACTAA)”, 0.0144. In the case of “CGATCGACATGGACCGGTTTTCCCGGTAATCCGTATTTGTT (site CCATCGACTAA)” it was 0.0246; in that of “CGATCGACATGGACCGGTTTTCCCGGTAATCCGTATTTGTT (site CGAACGACTAA)”, 0.0148.
